Experimental data: ChEMBL document CHEMBL1201862, “PubChem BioAssay data set” (2004)
Calls of active or inactive are those of the source.

Key:
[1] = target: Ras and Rab interactor 1/Tyrosine-protein kinase ABL1 (Homo sapiens, UniProt P00519+Q13671); assay type: functional;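 further: biochemical TR-FRET dose-response test measuring inhibition of binding between Rin1 and Abl proteins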
[2] = target: 26S proteasome non-ATPase regulatory subunit 14 (Homo sapiens, UniProt O00487); assay: inhibition of proteasome subunit RPN11 – biochemical, fluorescence polarization, uHTS hits, confirmation (AID 602368); assay type: functional
26S proteasome non-ATPase regulatory subunit 14, sequence (O00487 whole entry): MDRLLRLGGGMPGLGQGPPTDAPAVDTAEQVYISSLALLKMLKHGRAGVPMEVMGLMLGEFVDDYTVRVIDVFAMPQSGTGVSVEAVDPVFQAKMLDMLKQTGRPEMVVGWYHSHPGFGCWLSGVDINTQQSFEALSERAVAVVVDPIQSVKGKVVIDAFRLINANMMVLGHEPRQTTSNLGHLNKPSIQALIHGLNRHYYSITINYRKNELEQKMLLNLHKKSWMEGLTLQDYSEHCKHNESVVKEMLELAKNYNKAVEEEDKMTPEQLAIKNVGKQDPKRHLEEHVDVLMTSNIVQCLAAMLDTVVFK

[3] = target: 72 kDa type IV collagenase (Homo sapiens, UniProt P08253); assay: Dose Response validation of uHTS RPN11 inhibitor hits using a MMP-2 Fluorescence assay.; assay type: functional
72 kDa type IV collagenase, sequence (P08253 whole entry): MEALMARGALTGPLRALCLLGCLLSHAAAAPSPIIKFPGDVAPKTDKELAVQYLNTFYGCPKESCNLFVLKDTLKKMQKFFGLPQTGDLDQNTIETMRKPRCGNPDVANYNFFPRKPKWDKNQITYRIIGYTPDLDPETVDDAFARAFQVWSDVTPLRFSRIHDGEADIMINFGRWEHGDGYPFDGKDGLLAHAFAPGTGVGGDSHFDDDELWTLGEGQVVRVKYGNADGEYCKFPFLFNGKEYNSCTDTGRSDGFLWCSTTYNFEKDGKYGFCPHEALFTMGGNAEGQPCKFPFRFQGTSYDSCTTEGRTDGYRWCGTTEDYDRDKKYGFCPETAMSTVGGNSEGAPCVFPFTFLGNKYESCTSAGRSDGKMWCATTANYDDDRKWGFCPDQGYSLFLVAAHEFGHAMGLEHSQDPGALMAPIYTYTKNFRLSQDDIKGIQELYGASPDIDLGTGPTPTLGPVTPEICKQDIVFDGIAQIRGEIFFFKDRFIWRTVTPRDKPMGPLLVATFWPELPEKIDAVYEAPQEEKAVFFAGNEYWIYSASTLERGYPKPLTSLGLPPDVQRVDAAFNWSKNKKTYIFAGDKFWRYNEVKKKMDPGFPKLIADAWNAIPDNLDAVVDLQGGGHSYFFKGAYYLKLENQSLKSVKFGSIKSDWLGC

[4] = target: Prothrombin (Bos taurus, UniProt P00735); assay: thrombin protease inhibitors – biochemical, fluorescence polarization, uHTS hits, dose response (AID 602369); assay type: functional
[5] = target: Melanocortin receptor 4 (Homo sapiens, UniProt P32245); assay type: functional, cell-based;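 further: Cell-based assay with luminescence read-out, confirmatory dose-response testing for agonist activity of biased ligands at MC4R; human U2OS cells with tagged receptor and beta-arrestin; potency of agonists that increase receptor coupling to beta-arrestin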
Melanocortin receptor 4, sequence (P32245 whole entry): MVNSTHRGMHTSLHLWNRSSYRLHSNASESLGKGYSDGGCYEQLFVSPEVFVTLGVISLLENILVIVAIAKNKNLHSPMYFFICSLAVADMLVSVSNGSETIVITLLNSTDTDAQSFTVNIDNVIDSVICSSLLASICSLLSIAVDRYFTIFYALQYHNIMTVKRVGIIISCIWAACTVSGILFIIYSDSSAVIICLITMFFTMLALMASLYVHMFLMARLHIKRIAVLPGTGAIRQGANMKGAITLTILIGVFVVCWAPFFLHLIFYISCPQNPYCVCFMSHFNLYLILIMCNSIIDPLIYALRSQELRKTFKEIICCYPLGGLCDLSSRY

[6] = target: Cytochrome P450 3A4 (Homo sapiens, UniProt P08684);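 further: CYP3A4 tested as one member of a cytochrome P450 panel screen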
Cytochrome P450 3A4, sequence (P08684 whole entry): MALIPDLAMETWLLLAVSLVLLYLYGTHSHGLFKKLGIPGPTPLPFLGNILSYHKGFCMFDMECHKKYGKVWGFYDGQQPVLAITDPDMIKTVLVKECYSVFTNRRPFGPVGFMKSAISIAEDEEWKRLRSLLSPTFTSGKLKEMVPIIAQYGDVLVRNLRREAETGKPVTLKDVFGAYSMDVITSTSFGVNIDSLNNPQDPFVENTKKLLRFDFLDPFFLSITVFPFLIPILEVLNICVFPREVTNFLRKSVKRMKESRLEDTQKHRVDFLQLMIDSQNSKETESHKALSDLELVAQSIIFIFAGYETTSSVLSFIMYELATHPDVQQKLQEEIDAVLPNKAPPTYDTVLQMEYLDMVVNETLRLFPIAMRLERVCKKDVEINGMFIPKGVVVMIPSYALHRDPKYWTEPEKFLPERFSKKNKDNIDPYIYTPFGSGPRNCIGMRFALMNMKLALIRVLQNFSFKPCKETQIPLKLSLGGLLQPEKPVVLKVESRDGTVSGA

[7] = tested on: P388/ADR; assay: cells; assay type: functional; conditions: Mus musculus
[8] = tested on: SN12K1; assay: cells; assay type: functional; conditions: Homo sapiens
[9] = tested on: P388; assay: cells; assay type: functional; conditions: Mus musculus
[10] = luciferase reporter signal suppression in cells – H4 neuroglioma cells, luminescence, dose response (AID 1990); assay type: functional, cell-based
[11] = Luminescence Cell-Based Dose Response HTS to Identify Inhibitors of 5'UTR Stem-Loop Driven Prion Protein mRNA Translation in H4 Neuroglioblastoma Cells. [Related pubchem assays: 1827 (Project Summary), 1813 (Primary HTS)]; assay type: functional
[12] = alpha-synuclein stem-loop luciferase translation blockers – H4 neuroglioma cells, luminescence, confirmation (AID 1988); assay type: functional, cell-based
[13] = tested on: HEK293; assay: EBV LMP1 TES2 canonical NF-kB signalling blockers – cell-based, HEK293, luciferase, cherry-pick, dose response (AID 588343); assay type: functional; conditions: Homo sapiens
[14] = target: Mitochondrial peptide methionine sulfoxide reductase (Bos taurus, UniProt P54149); assay type: functional;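 further: absorbance read-out, biochemical high-throughput dose-response screen for MsrA inhibitors, confirmatory; recombinant bovine MsrA coupled to E. coli TrxB with NADPH and selenocystamine; potency is for inhibitors of MsrA activity on DMSO substrate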
Mitochondrial peptide methionine sulfoxide reductase, sequence (P54149 whole entry): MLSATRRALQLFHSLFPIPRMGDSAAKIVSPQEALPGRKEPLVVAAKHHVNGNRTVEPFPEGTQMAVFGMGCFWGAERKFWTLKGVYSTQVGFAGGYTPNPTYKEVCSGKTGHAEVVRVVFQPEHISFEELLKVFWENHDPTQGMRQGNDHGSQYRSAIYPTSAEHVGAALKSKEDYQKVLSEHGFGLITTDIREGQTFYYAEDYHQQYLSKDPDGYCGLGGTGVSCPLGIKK

[15] = target: T1, Endoribonuclease toxin MazF (Escherichia coli K-12, UniProt P0AE70); assay: activation of MazEF endoribonuclease cleavage – biochemical, fluorescence, single-stranded RNA substrate, uHTS hits, dose response (AID 588481); assay type: functional
T1 sequence (P0AE70 whole entry): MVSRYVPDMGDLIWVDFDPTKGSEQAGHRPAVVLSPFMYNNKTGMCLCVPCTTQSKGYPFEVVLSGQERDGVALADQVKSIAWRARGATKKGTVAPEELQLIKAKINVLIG

[16] = target: T1, Endoribonuclease toxin MazF; assay: substrate-only fluorescence increase artefacts – biochemical, single-stranded RNase substrate, counter-screen for MazEF activator project, dose response (AID 588502); assay type: functional
[17] = target: T2, Aryl hydrocarbon receptor (Homo sapiens, UniProt P35869); conditions: Potency;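 further: confirmatory quantitative high-throughput screen measuring activation of the AhR signaling pathway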
T2 sequence (P35869 whole entry): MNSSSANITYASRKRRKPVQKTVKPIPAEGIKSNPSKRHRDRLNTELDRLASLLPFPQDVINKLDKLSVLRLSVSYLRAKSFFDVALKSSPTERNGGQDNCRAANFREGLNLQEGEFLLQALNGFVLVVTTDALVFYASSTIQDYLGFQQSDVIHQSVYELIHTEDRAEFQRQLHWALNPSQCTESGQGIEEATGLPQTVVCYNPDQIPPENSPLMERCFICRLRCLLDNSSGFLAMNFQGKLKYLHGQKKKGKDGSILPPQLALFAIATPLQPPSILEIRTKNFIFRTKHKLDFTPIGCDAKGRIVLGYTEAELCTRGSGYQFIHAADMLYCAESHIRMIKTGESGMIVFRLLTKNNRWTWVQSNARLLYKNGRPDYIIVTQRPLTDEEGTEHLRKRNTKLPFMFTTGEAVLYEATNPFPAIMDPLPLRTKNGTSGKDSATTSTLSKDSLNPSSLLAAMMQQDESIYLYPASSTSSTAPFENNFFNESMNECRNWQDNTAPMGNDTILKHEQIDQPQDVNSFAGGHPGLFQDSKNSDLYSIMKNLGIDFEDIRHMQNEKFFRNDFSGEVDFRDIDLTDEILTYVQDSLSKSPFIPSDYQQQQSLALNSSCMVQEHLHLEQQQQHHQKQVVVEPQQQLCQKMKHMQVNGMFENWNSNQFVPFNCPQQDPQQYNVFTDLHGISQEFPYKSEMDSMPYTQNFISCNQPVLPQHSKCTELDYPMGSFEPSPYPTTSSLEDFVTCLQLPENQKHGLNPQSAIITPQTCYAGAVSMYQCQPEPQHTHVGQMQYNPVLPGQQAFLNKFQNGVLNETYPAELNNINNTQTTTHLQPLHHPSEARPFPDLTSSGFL

Ras and Rab interactor 1/Tyrosine-protein kinase ABL1, sequence (P00519 whole entry): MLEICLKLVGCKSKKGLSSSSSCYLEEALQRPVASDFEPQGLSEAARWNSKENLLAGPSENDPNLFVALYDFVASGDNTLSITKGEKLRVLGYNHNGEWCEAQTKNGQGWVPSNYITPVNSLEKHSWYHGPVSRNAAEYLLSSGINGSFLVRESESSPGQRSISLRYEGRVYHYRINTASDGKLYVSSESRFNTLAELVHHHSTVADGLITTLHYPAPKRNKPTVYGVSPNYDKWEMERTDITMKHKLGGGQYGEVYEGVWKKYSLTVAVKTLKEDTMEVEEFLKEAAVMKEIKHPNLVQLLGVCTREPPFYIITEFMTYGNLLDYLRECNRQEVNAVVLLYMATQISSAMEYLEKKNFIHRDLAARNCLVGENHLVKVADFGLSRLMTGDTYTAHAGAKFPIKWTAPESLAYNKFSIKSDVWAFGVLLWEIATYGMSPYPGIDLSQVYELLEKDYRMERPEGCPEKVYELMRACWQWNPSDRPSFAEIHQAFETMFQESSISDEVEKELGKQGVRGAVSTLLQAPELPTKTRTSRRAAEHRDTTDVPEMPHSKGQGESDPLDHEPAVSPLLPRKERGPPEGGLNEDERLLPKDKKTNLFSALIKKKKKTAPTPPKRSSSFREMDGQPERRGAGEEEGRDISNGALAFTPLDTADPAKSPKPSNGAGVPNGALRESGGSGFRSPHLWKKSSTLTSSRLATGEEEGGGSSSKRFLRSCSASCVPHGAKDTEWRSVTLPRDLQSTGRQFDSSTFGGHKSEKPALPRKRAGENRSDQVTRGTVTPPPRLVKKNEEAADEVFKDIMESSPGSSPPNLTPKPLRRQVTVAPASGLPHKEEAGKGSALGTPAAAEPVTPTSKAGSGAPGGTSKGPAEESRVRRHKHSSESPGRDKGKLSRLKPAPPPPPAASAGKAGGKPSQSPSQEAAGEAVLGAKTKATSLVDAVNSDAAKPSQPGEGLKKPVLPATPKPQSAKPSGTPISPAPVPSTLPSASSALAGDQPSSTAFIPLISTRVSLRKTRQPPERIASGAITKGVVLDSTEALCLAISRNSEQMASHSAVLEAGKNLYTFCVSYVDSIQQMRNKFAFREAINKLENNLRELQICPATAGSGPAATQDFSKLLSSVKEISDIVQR
Ras and Rab interactor 1/Tyrosine-protein kinase ABL1, sequence (Q13671 whole entry): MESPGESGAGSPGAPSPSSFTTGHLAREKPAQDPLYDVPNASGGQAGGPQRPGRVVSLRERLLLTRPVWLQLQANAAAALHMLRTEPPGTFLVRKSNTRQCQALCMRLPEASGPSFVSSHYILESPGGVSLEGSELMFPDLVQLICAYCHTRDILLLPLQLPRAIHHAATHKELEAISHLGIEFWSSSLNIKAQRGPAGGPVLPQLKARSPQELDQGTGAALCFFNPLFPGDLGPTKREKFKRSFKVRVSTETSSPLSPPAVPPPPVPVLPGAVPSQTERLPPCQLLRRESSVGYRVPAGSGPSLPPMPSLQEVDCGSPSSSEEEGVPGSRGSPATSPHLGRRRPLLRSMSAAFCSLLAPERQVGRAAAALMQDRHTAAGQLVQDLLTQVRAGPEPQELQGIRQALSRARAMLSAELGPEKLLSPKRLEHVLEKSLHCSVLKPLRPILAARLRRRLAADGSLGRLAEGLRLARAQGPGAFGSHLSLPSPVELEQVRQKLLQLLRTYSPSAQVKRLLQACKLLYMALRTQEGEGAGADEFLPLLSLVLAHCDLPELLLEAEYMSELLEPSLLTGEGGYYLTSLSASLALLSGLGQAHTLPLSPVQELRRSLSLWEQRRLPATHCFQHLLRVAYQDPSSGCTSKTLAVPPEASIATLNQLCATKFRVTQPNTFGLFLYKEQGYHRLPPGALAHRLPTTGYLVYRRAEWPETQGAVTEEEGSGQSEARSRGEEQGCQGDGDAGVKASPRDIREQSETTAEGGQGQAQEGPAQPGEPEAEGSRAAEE

For `CN(Cc1ccccc1)C(=O)c1ccc(NC(=O)Cc2ccc(NC(=O)C3CCN(C(=O)C4CCCC4)CC3)cc2)cc1`, the IC50 [1] was 20.7 µM (inactive).
With `CCCC/N=c1\scc(-c2ccc3c(c2)NC(=O)CO3)n1N=C1CCCC1` the IC50 [2] was 26.6 µM (active), the IC50 [3] was > 100 µM (inactive) and the IC50 [4] was 27.7 µM (active).
With `CCOc1ccc(C(=O)N/N=C/c2cc(Cl)ccc2[N+](=O)[O-])cc1` the IC50 [2] was 19.3 µM (active), the IC50 [3] was > 100 µM (inactive) and the IC50 [4] was 59.3 µM (active).
In the case of `O=C(N/N=C/c1ccc(OCc2ccccc2)cc1)c1cccs1`, the EC50 [5] is reported as > 89.2 µM (inactive) and the AC50 [6] is reported as 39.8 µM (inconclusive).
In the case of `CC1OC(O[C@@H]2C=C3CC[C@@H]4[C@H](CC[C@]5(C)[C@@H](c6ccc(=O)oc6)CC[C@]45O)[C@@]3(C)CC2)C(O)C(OC2OC(CO)C(O)C(O)C2O)C1O` (stereo partly specified), the GI50 [7] is reported as 51.3 µM (inactive), the GI50 [8] is reported as 0.025 µM (active) and the GI50 [9] is reported as 45.3 µM (inactive).
For `O=C(N/N=C/c1cccs1)c1[nH]nc2c1CCCC2`, the EC50 [10] was 8.62 µM (inconclusive), the EC50 [11] was 9.49 µM (active) and the EC50 [12] was 8.52 µM (active). The AC50 [13] was 2.39 µM (active).
With `CN(/N=C/C=C/c1ccccc1)c1cc(=O)n(C)c(=O)[nH]1` the IC50 [14] was 155 µM (inactive).
With `O=C(COc1cccc(Cl)c1)N/N=C\c1cc2ccccc2nc1Cl` the EC50 [15] was > 99 µM (inactive) and the EC50 [16] was > 99 µM (inactive).
In the case of `CON=C(C(=O)OC)c1ccccc1CO/N=C(\C)c1cccc(C(F)(F)F)c1`, the AC50 [17] is reported as 63.1 µM (inconclusive).
With `Cc1ccc(/N=C/N(C)/C=N/c2ccc(C)cc2C)c(C)c1` [AMITRAZ] the AC50 [17] was 50.1 µM (inconclusive).
